Measurements reported in PubChem BioAssay AID624404 (Broad Institute, 2012).
Results filed as inconclusive are left out.

These compounds were tested on D54 LucT luciferase reporter counterscreen, luminescence, 24 h (assay: luciferase activators in glycosylation-insensitive reporter cells, dose response, counter-screen for N-linked glycosylation inhibitor project, D54 LucT cells, luminescence, cherry pick (AID 624404)).
`COc1ccc2c(c1)C(=O)N1[C@H]3c4cc(C)ccc4OC[C@@H]3[C@H](c3ccccc3)[C@]1(C)C(=O)N2` was tested, and the AC35 was 933 nM.
In the case of `COc1ccccc1/C=C/C(=O)/C=C/c1ccccc1O`, the AC35 is reported as 266 nM.
With `C[C@@]12C(=O)Nc3cc(Cl)ccc3C(=O)N1[C@H]1c3cc(Cl)ccc3OC[C@@H]1[C@@H]2c1ccccc1` the AC35 was 1440 nM.
With `NNC(=O)c1oc2nc(-c3cccs3)cc(-c3ccco3)c2c1N` the AC35 was 2930 nM.
Work on `COc1cc(/C=N/n2cnc3scc(-c4cccs4)c3c2=O)cc(OC)c1OC` yielded an AC35 of 177 nM.
In the case of `Oc1ccc(-c2csc(-c3c[nH]c4ccccc34)n2)c(O)c1`, the AC35 is reported as 697 nM.
With `COc1ccc(Nc2nc(N(C)c3ccccc3)nc(N)c2[N+](=O)[O-])cc1` the AC35 was 171 nM.
`CCNC(=O)COc1ccc(/C=C2\COc3ccccc3C2=O)cc1OC` gave an AC35 of 4800 nM.
`CC(=O)c1c(C)[nH]c(C(=O)Nc2nccs2)c1C` showed an AC35 of 379 nM.
`Cc1cccc(NC(=O)Nc2cccc(C#N)c2)n1` was tested, and the AC35 was 467 nM.
Work on `CC(=O)Nc1ccc(/C=C/C(=O)c2ccc3c(c2)OCCO3)cc1` yielded an AC35 of 2880 nM.
`O=C(c1ncn(Cc2ccccc2)c1C(=O)N1CCN(c2ccccc2)CC1)N1CCN(c2ccccc2)CC1` showed an AC35 of 1230 nM.
`O=C(Nc1ccccc1N1CCOCC1)c1ccc2nc[nH]c2c1` was tested, and the AC35 was 852 nM.
In the case of `Cc1ccc(C=Nc2ccccc2C(N)=O)cc1`, the AC35 is reported as 2750 nM.
Compound `COc1cc(/C=C(/C(=O)c2cccs2)c2nc3ccccc3[nH]2)cc(OC)c1O` has an AC35 of 19.5 nM.
For `c1ccc(CNc2ncnc3c2cnn3-c2ccccc2)cc1`, the AC35 was 719 nM.
For `COc1ccccc1NC(=O)c1cnc(SCC(=O)NCC2CCCO2)n(C)c1=O` (stereo not drawn), the AC35 was 4930 nM.
With `C=C(C)Cn1c2ccc(NC(=O)CCc3cccc(Cl)c3)cc2c(=O)n1C` the AC35 was 4260 nM.
Compound `CC(=O)c1c(C)[nH]c(C(=O)Nc2cccc(S(=O)(=O)N3CCCC3)c2)c1C` has an AC35 of 3950 nM.
`COc1ccc(CC(=O)Nc2ccc(-c3ccc4nnc(C)n4n3)cc2)cc1OC` showed an AC35 of 1800 nM.
In the case of `CCn1c(=S)[nH]c2cc(S(=O)(=O)N3CCCCC3)ccc21`, the AC35 is reported as 1250 nM.
Compound `O=C(Nc1ccccc1O)c1ccc(NC(=O)C2CC2)cc1` has an AC35 of 432 nM.
With `O=C(NC(=C(Cl)Cl)S(=O)(=O)c1ccc(Cl)cc1)c1ccccc1` the AC35 was 2160 nM.
`O=C(N/N=C/c1c(-c2ccccc2)[nH]c2ccccc12)c1cccnc1` showed an AC35 of 1280 nM.
In the case of `Cc1cnc(NC(=O)C2CC(=O)N(c3cccc(Cl)c3)C2)s1` (stereo not drawn), the AC35 is reported as 1600 nM.
`COc1ccc(C(=O)N2CCN(S(=O)(=O)c3ccc(C)cc3C)CC2)cc1S(=O)(=O)N1CCOCC1` was tested, and the AC35 was 4790 nM.
`COc1ccc(C(=O)/C=C/c2ccccc2)c(O)c1` gave an AC35 of 404 nM.
`CCc1ccc(OCC(=O)Nc2ccncc2)c(Br)c1` showed an AC35 of 598 nM.
`COc1ccc(CC(=O)N(Cc2ccccc2)c2ccc(C)cc2)cc1S(=O)(=O)N1CCOCC1` showed an AC35 of 2500 nM.
For `C[C@@]12C(=O)Nc3ccc(F)cc3C(=O)N1[C@H]1c3cc(Cl)ccc3OC[C@@H]1[C@@H]2c1ccccc1`, the AC35 was 1820 nM.
In the case of `Cc1ccc(C(=O)N/C(=C\c2cccs2)C(=O)NCCc2c[nH]c3ccccc23)cc1`, the AC35 is reported as 1090 nM.
`COc1ccc(NC(=O)c2cc3c(=O)n(C)c4ccccc4c3n2C)cc1OC` gave an AC35 of 4000 nM.
`COc1ccccc1-c1csc(C(NC(C)=O)c2ccc(F)c(F)c2)n1` (stereo not drawn) was tested, and the AC35 was 420 nM.
In the case of `COc1ccc2c(c1)[C@H]1[C@H](CO2)[C@H](c2ccccc2)[C@]2(C)C(=O)Nc3ccc(Cl)cc3C(=O)N12`, the AC35 is reported as 148 nM.
Compound `COc1ccc(C(=O)/C=C/c2ccc(OC)c(O)c2)c(F)c1` has an AC35 of 219 nM.
For `CC(CC(=O)Nc1ccc2c(c1)c(=O)n(C)n2-c1cccs1)c1ccccc1` (stereo not drawn), the AC35 was 7420 nM.
`Cc1cccc(N2CCN(C(=O)c3ccc(Cl)c(S(=O)(=O)NCc4ccco4)c3)CC2)c1C` showed an AC35 of 202 nM.
Work on `COc1cc(C(=O)NC2CCN(C)CC2)ccc1Nc1ncc2c(n1)N(C1CCCCC1)CCC(=O)N2C` yielded an AC35 of 30.5 nM.
For `Cc1cc(=O)oc2cc(OCC(=O)N3c4ccccc4CC3C)ccc12` (stereo not drawn), the AC35 was 1370 nM.
Work on `C[C@@H](NC(=O)c1ncn2c1c(=O)[nH]c1ccc(Br)cc12)c1ccccc1` yielded an AC35 of 210 nM.
In the case of `CCOC(=O)c1[nH]c(C)c(C(=O)Nc2cc(OC)ccc2OC)c1C`, the AC35 is reported as 345 nM.
`Cc1ccc2c(c1)cc(CN(C(=O)N1CCOCC1)C1CCCC1)c1nnnn12` was tested, and the AC35 was 2460 nM.
`COc1cccc(N2CCN(C(=O)c3ccc(CS(=O)c4ccc(Cl)cc4)o3)CC2)c1` (stereo not drawn) gave an AC35 of 773 nM.
With `Cc1[nH]c2ccccc2c1/C=N/NC(=O)c1cc(-c2ccncc2)nc2ccccc12` the AC35 was 2060 nM.
`c1ccc(N=Nc2ccc3cccccc2-3)cc1` was tested, and the AC35 was 355 nM.
`Cn1cccc1/C=C1\SC(=Nc2cccc(O)c2)NC1=O` gave an AC35 of 1760 nM.
`CN(C)CCNc1cccc2sc3ccc(O)cc3c(=O)c12` gave an AC35 of 1980 nM.
With `Cc1ccc(N=Nc2c(N)nn(-c3ccccc3)c2N)cc1` the AC35 was 56.1 nM.
`O=C(CCN1C(=O)/C(=C/c2cccs2)SC1=S)N1CCCCC1` showed an AC35 of 4530 nM.
Compound `O=C(/C=C/Sc1ccccc1)c1ccc(Cl)cc1` has an AC35 of 370 nM.
Work on `Nc1c(N(Cc2ccccc2)C(=O)COc2ccc([N+](=O)[O-])cc2)c(=O)[nH]c(=O)n1Cc1ccccc1` yielded an AC35 of 303 nM.
Work on `COc1cc2c(cc1OC)C(c1cccs1)N(C(=O)c1cccnc1)CC2` (stereo not drawn) yielded an AC35 of 438 nM.
For `CCC(Cc1ccccc1)NC(=O)c1ccc2nc(N3CCOCC3)sc2c1` (stereo not drawn), the AC35 was 480 nM.
